# Patent publication US20060100180A1, “Composition containing an androgenous 11b-halogen steroid and a progestational hormone, and male contraceptive based on said composition” (priority 2002, published 2006)
# Key:
# [1] = effectiveness compared with testosterone; settings: more effective than testosterone
# [2] = cited from earlier work
Structure (SMILES),effectiveness relative to testosterone [1],biological effectiveness compared with testosterone [2]
"C[C@@H]1CC2=CC(=O)CC[C@@H]2[C@@H]2[C@@H]1[C@@H]1CC[C@H](O)[C@@]1(C)C[C@@H]2F [Compound A, 11β-fluoro-17β-hydroxy-7α-methyl-estr-4-en-3-one]",about 10 ×,
C[C@@H]1CC2=CC(=O)CC[C@@H]2[C@H]2CC[C@]3(C)[C@@H](O)CC[C@H]3[C@@H]21 [7α-methyl-19-nortestosterone],,higher biological effectiveness than testosterone
